Test system: MV-4-11 cells
Assay: Gene expression microarray analysis (Affymetrix PrimeView) and GSEA
Format: cell-based, human
Parameters: RFU PODN (11730768_x_at) / Fold change /veh PODN (11730768_x_at) / RFU LINC00158 (11744669_a_at) / Fold change /veh LINC00158 (11744669_a_at) / RFU DUSP10 (11751237_a_at) / Fold change /veh DUSP10 (11751237_a_at) / RFU ID3 (11757404_x_at) / Fold change /veh ID3 (11757404_x_at) / RFU PLEKHG5 (11737974_s_at) / Fold change /veh PLEKHG5 (11737974_s_at) / RFU LRRC4B (11730491_at) / Fold change /veh LRRC4B (11730491_at) / RFU GIMAP4 (11747438_a_at) / Fold change /veh GIMAP4 (11747438_a_at) / RFU KRT8 (11758183_x_at) / Fold change /veh KRT8 (11758183_x_at) / RFU CNN1 (11734310_a_at) / Fold change /veh CNN1 (11734310_a_at) / RFU VPS37D (11726825_at) / Fold change /veh VPS37D (11726825_at) / RFU C10orf10 (11716522_x_at) / Fold change /veh C10orf10 (11716522_x_at) / RFU KIR2DL2 /// KIR2DL4 /// KIR2DL5A /// KIR2DL5B /// KIR2DS1 /// KIR2DS2 /// KIR2DS3 /// KIR2DS4 /// KIR3DL3 /// KIR3DL3 /// KIR3DS1 (11738374_at) / Fold change /veh KIR2DL2 /// KIR2DL4 /// KIR2DL5A /// KIR2DL5B /// KIR2DS1 /// KIR2DS2 /// KIR2DS3 /// KIR2DS4 /// KIR3DL3 /// KIR3DL3 /// KIR3DS1 (11738374_at) / RFU C1QL1 (11718748_at) / Fold change /veh C1QL1 (11718748_at) / RFU TMPRSS4 (11747572_a_at) / Fold change /veh TMPRSS4 (11747572_a_at) / RFU HAMP (11756126_x_at) / Fold change /veh HAMP (11756126_x_at) / RFU RNFT2 (11725882_a_at) / Fold change /veh RNFT2 (11725882_a_at) / RFU NR4A2 (11747474_a_at) / Fold change /veh NR4A2 (11747474_a_at) / RFU ABCC12 (11746883_a_at) / Fold change /veh ABCC12 (11746883_a_at) / RFU TMEM136 (11760407_x_at) / Fold change /veh TMEM136 (11760407_x_at) / RFU CLDN22 /// WWC2 (11732394_at) / Fold change /veh CLDN22 /// WWC2 (11732394_at) / RFU HLA-DPB1 (11760878_x_at) / Fold change /veh HLA-DPB1 (11760878_x_at) / RFU SPINT1 (11716480_a_at) / Fold change /veh SPINT1 (11716480_a_at) / RFU GAP43 (11754022_s_at) / Fold change /veh GAP43 (11754022_s_at) / RFU A4GNT (11735810_at) / Fold change /veh A4GNT (11735810_at) / RFU PRB3 (11715151_x_at) / Fold change /veh PRB3 (11715151_x_at) / RFU TUBB4B (11761932_at) / Fold change /veh TUBB4B (11761932_at) / RFU CAPN14 (11732068_a_at) / Fold change /veh CAPN14 (11732068_a_at) / RFU TMCC2 (11721928_a_at) / Fold change /veh TMCC2 (11721928_a_at) / RFU IRGQ (11745062_a_at) / Fold change /veh IRGQ (11745062_a_at) / RFU FAM174B (11720279_a_at) / Fold change /veh FAM174B (11720279_a_at) / RFU TMPRSS4 (11748680_a_at) / Fold change /veh TMPRSS4 (11748680_a_at) / RFU FAM212B (11763350_a_at) / Fold change /veh FAM212B (11763350_a_at) / RFU PLEKHG5 (11743358_a_at) / Fold change /veh PLEKHG5 (11743358_a_at) / RFU ZSCAN30 (11745921_a_at) / Fold change /veh ZSCAN30 (11745921_a_at) / RFU CMKLR1 (11741424_a_at) / Fold change /veh CMKLR1 (11741424_a_at) / RFU LOC101060620 /// MAPK8IP1 (11723275_at) / Fold change /veh LOC101060620 /// MAPK8IP1 (11723275_at) / RFU SPTSSB (11747773_x_at) / Fold change /veh SPTSSB (11747773_x_at) / RFU PRSS12 (11739890_at) / Fold change /veh PRSS12 (11739890_at) / RFU BIN1 (11741810_x_at) / Fold change /veh BIN1 (11741810_x_at) / RFU WNT11 (11732464_a_at) / Fold change /veh WNT11 (11732464_a_at) / RFU C10orf10 (11716521_a_at) / Fold change /veh C10orf10 (11716521_a_at) / RFU C5orf56 (11738089_at) / Fold change /veh C5orf56 (11738089_at) / RFU CYB561 (11721691_x_at) / Fold change /veh CYB561 (11721691_x_at) / RFU ANKRD19P (11752326_a_at) / Fold change /veh ANKRD19P (11752326_a_at) / RFU OR2T12 /// OR2T33 /// OR2T8 (11738714_s_at) / Fold change /veh OR2T12 /// OR2T33 /// OR2T8 (11738714_s_at) / RFU VCAN (11748164_a_at) / Fold change /veh VCAN (11748164_a_at) / RFU JSRP1 (11732532_at) / Fold change /veh JSRP1 (11732532_at) / RFU KRTAP10-11 (11738290_x_at) / Fold change /veh KRTAP10-11 (11738290_x_at) / RFU MYO3A (11730013_a_at) / Fold change /veh MYO3A (11730013_a_at) / RFU EBF3 (11725865_a_at) / Fold change /veh EBF3 (11725865_a_at) / RFU CAMK2N1 (11719241_x_at) / Fold change /veh CAMK2N1 (11719241_x_at) / RFU C5orf56 (11738088_a_at) / Fold change /veh C5orf56 (11738088_a_at) / RFU OLFML3 (11715873_a_at) / Fold change /veh OLFML3 (11715873_a_at) / RFU LOC100653217 /// NTM (11731650_a_at) / Fold change /veh LOC100653217 /// NTM (11731650_a_at) / RFU MAPK11 (11762145_a_at) / Fold change /veh MAPK11 (11762145_a_at) / RFU FIZ1 (11724087_x_at) / Fold change /veh FIZ1 (11724087_x_at) / RFU OASL (11726364_x_at) / Fold change /veh OASL (11726364_x_at) / RFU SOX15 (11748057_x_at) / Fold change /veh SOX15 (11748057_x_at) / RFU CD79A (11719716_a_at) / Fold change /veh CD79A (11719716_a_at) / RFU HIST1H1D (11736915_at) / Fold change /veh HIST1H1D (11736915_at) / RFU CASKIN2 (11723855_a_at) / Fold change /veh CASKIN2 (11723855_a_at) / RFU LOC730098 (11760151_x_at) / Fold change /veh LOC730098 (11760151_x_at) / RFU OR4N2 (11742367_at) / Fold change /veh OR4N2 (11742367_at) / RFU PRRT2 (11749266_a_at) / Fold change /veh PRRT2 (11749266_a_at) / RFU SNX32 (11753110_a_at) / Fold change /veh SNX32 (11753110_a_at) / RFU CDHR5 (11726645_a_at) / Fold change /veh CDHR5 (11726645_a_at) / RFU RCAN1 (11760418_a_at) / Fold change /veh RCAN1 (11760418_a_at) / RFU FAM167A (11723789_a_at) / Fold change /veh FAM167A (11723789_a_at) / RFU FAM26E (11764081_at) / Fold change /veh FAM26E (11764081_at) / RFU ISYNA1 (11749810_s_at) / Fold change /veh ISYNA1 (11749810_s_at) / RFU ACY1 (11761880_at) / Fold change /veh ACY1 (11761880_at) / RFU 11764098_at / Fold change /veh 11764098_at / RFU SAMD14 (11745864_x_at) / Fold change /veh SAMD14 (11745864_x_at) / RFU NPB (11741838_a_at) / Fold change /veh NPB (11741838_a_at) / RFU TMPRSS6 (11731388_a_at) / Fold change /veh TMPRSS6 (11731388_a_at) / RFU KRTAP10-2 (11738614_at) / Fold change /veh KRTAP10-2 (11738614_at) / RFU ARHGAP8 /// PRR5-ARHGAP8 (11727945_x_at) / Fold change /veh ARHGAP8 /// PRR5-ARHGAP8 (11727945_x_at) / RFU KRTAP5-7 /// NADSYN1 (11734609_at) / Fold change /veh KRTAP5-7 /// NADSYN1 (11734609_at) / RFU RASL12 (11751679_a_at) / Fold change /veh RASL12 (11751679_a_at) / RFU CDKN2B (11736163_a_at) / Fold change /veh CDKN2B (11736163_a_at) / RFU PRF1 (11729649_at) / Fold change /veh PRF1 (11729649_at) / RFU, ZNF638 /// ZNF638-IT1 / Fold change vs veh, ZNF638 /// ZNF638-IT1 / RFU, PANK3 / Fold change vs veh, PANK3 / RFU, SH3YL1 / Fold change vs veh, SH3YL1 / RFU, ZEB2 / Fold change vs veh, ZEB2 / RFU, NRIP1 / Fold change vs veh, NRIP1 / RFU, PTTG1IP / Fold change vs veh, PTTG1IP / RFU, CAPN2 / Fold change vs veh, CAPN2 / RFU, MED14 / Fold change vs veh, MED14 / RFU, SNORA58 / Fold change vs veh, SNORA58 / RFU, C1orf63 / Fold change vs veh, C1orf63 / RFU, LRRFIP1 / Fold change vs veh, LRRFIP1 / RFU, NDUFAF7 / Fold change vs veh, NDUFAF7 / RFU, SLC12A2 / Fold change vs veh, SLC12A2 / RFU, IBTK / Fold change vs veh, IBTK / RFU, ESF1 / Fold change vs veh, ESF1 / Fold change vs veh, TMEM50B / RFU, TAOK1 / Fold change vs veh, TAOK1 / RFU, ACBD3 / Fold change vs veh, ACBD3 / RFU, TMA16 / Fold change vs veh, TMA16 / RFU, RWDD3 / Fold change vs veh, RWDD3 / RFU, BCAT1 / Fold change vs veh, BCAT1 / RFU, EDEM3 / Fold change vs veh, EDEM3 / RFU, TMEM33 / Fold change vs veh, TMEM33 / RFU, WDR75 / Fold change vs veh, WDR75 / RFU, AHCTF1 / Fold change vs veh, AHCTF1 / RFU, TFRC / Fold change vs veh, TFRC / RFU, ZDHHC17 / Fold change vs veh, ZDHHC17 / RFU, NOM1 / Fold change vs veh, NOM1 / RFU, ARL8B / Fold change vs veh, ARL8B / RFU, ZBTB11 / Fold change vs veh, ZBTB11 / RFU, TAMM41 / Fold change vs veh, TAMM41 / RFU, KIAA1704 /// LOC100996395 / Fold change vs veh, KIAA1704 /// LOC100996395 / RFU, ING1 / Fold change vs veh, ING1 / RFU, TRMT61B / Fold change vs veh, TRMT61B / RFU, FUBP3 / Fold change vs veh, FUBP3 / RFU, TP53 / Fold change vs veh, TP53 / RFU, TNKS2 / Fold change vs veh, TNKS2 / RFU, ZFP14 / Fold change vs veh, ZFP14 / RFU, ACTR2 / Fold change vs veh, ACTR2 / RFU, PPP3R1 / Fold change vs veh, PPP3R1 / RFU, PIK3R1 / Fold change vs veh, PIK3R1 / RFU, HNRNPA1 / Fold change vs veh, HNRNPA1 / RFU, RNF170 / Fold change vs veh, RNF170 / RFU, ZNF28 / Fold change vs veh, ZNF28 / RFU, RNGTT / Fold change vs veh, RNGTT / RFU, OGT / Fold change vs veh, OGT / RFU, BRD1 / Fold change vs veh, BRD1 / RFU, MARS / Fold change vs veh, MARS / RFU, ZNF655 / Fold change vs veh, ZNF655 / RFU, FAHD1 / Fold change vs veh, FAHD1 / RFU, BDP1 / Fold change vs veh, BDP1 / RFU, LRRCC1 / Fold change vs veh, LRRCC1 / RFU, ARID1A / Fold change vs veh, ARID1A / RFU, ZNF146 / Fold change vs veh, ZNF146 / RFU, ZNF330 / Fold change vs veh, ZNF330 / RFU, GPN3 / Fold change vs veh, GPN3 / RFU, C9orf123 / Fold change vs veh, C9orf123 / RFU, N4BP2L2 / Fold change vs veh, N4BP2L2 / RFU, ARFIP1 / Fold change vs veh, ARFIP1 / RFU, FAM179B / Fold change vs veh, FAM179B / RFU, BCL10 / Fold change vs veh, BCL10 / RFU, UHRF1BP1L / Fold change vs veh, UHRF1BP1L / RFU, BET1 / Fold change vs veh, BET1 / RFU, CNOT2 / Fold change vs veh, CNOT2 / RFU, ZNF268 / Fold change vs veh, ZNF268 / Fold change vs veh, ZNF507 / RFU, DGCR2 / Fold change vs veh, DGCR2 / RFU, WDSUB1 / Fold change vs veh, WDSUB1 / Fold change vs veh, HSP90B1 /// MIR3652 / RFU, ADSS / Fold change vs veh, ADSS / RFU, GK / Fold change vs veh, GK / RFU, ZNF148 / Fold change vs veh, ZNF148 / RFU, TAF9 / Fold change vs veh, TAF9 / RFU, SLC1A5 / Fold change vs veh, SLC1A5 / RFU, SLMO2 / Fold change vs veh, SLMO2 / RFU, ABCC4 / Fold change vs veh, ABCC4 / RFU, LOC101060439 /// RAP1B / Fold change vs veh, LOC101060439 /// RAP1B / RFU, RFX7 / Fold change vs veh, RFX7 / RFU, GTPBP10 / Fold change vs veh, GTPBP10 / RFU, CNEP1R1 / Fold change vs veh, CNEP1R1 / RFU, BIVM-ERCC5 /// ERCC5 / Fold change vs veh, BIVM-ERCC5 /// ERCC5 / RFU, ILF3 / Fold change vs veh, ILF3 / RFU 11762660_at / Fold change /veh 11762660_at / RFU VCAN (11757783_s_at) / Fold change /veh VCAN (11757783_s_at) / RFU DDX43 (11728927_at) / Fold change /veh DDX43 (11728927_at) / RFU KRT8 (11758188_x_at) / Fold change /veh KRT8 (11758188_x_at) / RFU NKD1 (11759106_at) / Fold change /veh NKD1 (11759106_at) / RFU SRD5A1 (11742802_a_at) / Fold change /veh SRD5A1 (11742802_a_at) / RFU TPSAB1 /// TPSB2 (11721975_s_at) / Fold change /veh TPSAB1 /// TPSB2 (11721975_s_at) / RFU GSTM3 (11746129_a_at) / Fold change /veh GSTM3 (11746129_a_at) / RFU IL23R (11737362_x_at) / Fold change /veh IL23R (11737362_x_at) / RFU TMEM51 (11727254_a_at) / Fold change /veh TMEM51 (11727254_a_at) / RFU PIWIL2 (11732686_x_at) / Fold change /veh PIWIL2 (11732686_x_at) / RFU ORM1 (11744905_x_at) / Fold change /veh ORM1 (11744905_x_at) / RFU CCDC152 (11743942_at) / Fold change /veh CCDC152 (11743942_at) / RFU ECM1 (11717891_a_at) / Fold change /veh ECM1 (11717891_a_at) / RFU IL23R (11748794_a_at) / Fold change /veh IL23R (11748794_a_at) / RFU TNFAIP8L3 (11732012_x_at) / Fold change /veh TNFAIP8L3 (11732012_x_at) / RFU MBOAT4 (11741988_at) / Fold change /veh MBOAT4 (11741988_at) / RFU 11764193_at / Fold change /veh 11764193_at / RFU TMEM53 (11763286_at) / Fold change /veh TMEM53 (11763286_at) / RFU MAGEB2 (11727129_at) / Fold change /veh MAGEB2 (11727129_at) / RFU TMEM200A (11744735_a_at) / Fold change /veh TMEM200A (11744735_a_at) / RFU CCDC152 (11751479_a_at) / Fold change /veh CCDC152 (11751479_a_at) / RFU FAM211A (11726209_a_at) / Fold change /veh FAM211A (11726209_a_at) / RFU RGS16 (11746705_a_at) / Fold change /veh RGS16 (11746705_a_at) / RFU VCAN (11755009_s_at) / Fold change /veh VCAN (11755009_s_at) / RFU RHOB (11743442_s_at) / Fold change /veh RHOB (11743442_s_at) / RFU RGS16 (11720943_a_at) / Fold change /veh RGS16 (11720943_a_at) / RFU RGS16 (11720944_at) / Fold change /veh RGS16 (11720944_at) / RFU, VPS4B / Fold change vs veh, VPS4B / RFU, CREB1 / Fold change vs veh, CREB1 / RFU, DNAJC13 / Fold change vs veh, DNAJC13 / RFU, GNAQ / Fold change vs veh, GNAQ / RFU, CDK5R1 / Fold change vs veh, CDK5R1 / RFU, ZRANB3 / Fold change vs veh, ZRANB3 / RFU, CUL4A / Fold change vs veh, CUL4A / RFU, CCNY / Fold change vs veh, CCNY / RFU, UFL1 / Fold change vs veh, UFL1 / RFU, COG3 / Fold change vs veh, COG3 / RFU, DIAPH2 / Fold change vs veh, DIAPH2 / RFU, SKA2 / Fold change vs veh, SKA2 / RFU, AFF3 / Fold change vs veh, AFF3 / RFU, LMF1 / Fold change vs veh, LMF1 / RFU, IPO11 / Fold change vs veh, IPO11 / RFU, DFFB / Fold change vs veh, DFFB / RFU, FOXP1 / Fold change vs veh, FOXP1 / RFU, CARD8 / Fold change vs veh, CARD8 / RFU, STRN3 / Fold change vs veh, STRN3 / RFU, ADK / Fold change vs veh, ADK / RFU, RASSF2 / Fold change vs veh, RASSF2 / RFU, WIPF1 / Fold change vs veh, WIPF1 / RFU, LARP1B / Fold change vs veh, LARP1B / RFU, RASA1 / Fold change vs veh, RASA1 / RFU, RB1 / Fold change vs veh, RB1 / RFU, PPFIA1 / Fold change vs veh, PPFIA1 / RFU, MAT2A / Fold change vs veh, MAT2A / RFU, CCT5 / Fold change vs veh, CCT5 / RFU, WDR92 / Fold change vs veh, WDR92 / RFU, CUX1 / Fold change vs veh, CUX1 / RFU, TTC7A / Fold change vs veh, TTC7A / RFU, TMEM135 / Fold change vs veh, TMEM135 / RFU, DEPTOR / Fold change vs veh, DEPTOR / RFU, CPM / Fold change vs veh, CPM / RFU, DNAJB6 / Fold change vs veh, DNAJB6 / RFU, CACNA2D3 / Fold change vs veh, CACNA2D3 / RFU, DTX4 / Fold change vs veh, DTX4 / RFU, TFCP2 / Fold change vs veh, TFCP2 / RFU, GMCL1 /// GMCL1P1 / Fold change vs veh, GMCL1 /// GMCL1P1 / RFU, AEBP2 / Fold change vs veh, AEBP2 / RFU, SNHG1 /// SNORD22 /// SNORD25 /// SNORD26 /// SNORD27 /// SNORD28 /// SNORD29 /// SNORD31 / Fold change vs veh, SNHG1 /// SNORD22 /// SNORD25 /// SNORD26 /// SNORD27 /// SNORD28 /// SNORD29 /// SNORD31 / Fold change (Aza/veh), C12orf56 (ProbeSet 11735607_a_at) / Fold change (ACY-1035/veh), C12orf56 (ProbeSet 11735607_a_at) / Fold change (Aza/veh), FGFR1OP (ProbeSet 11751329_s_at) / Fold change (ACY-1035/veh), FGFR1OP (ProbeSet 11751329_s_at) / Fold change (Aza/veh), VPS36 (ProbeSet 11739960_a_at) / Fold change (ACY-1035/veh), VPS36 (ProbeSet 11739960_a_at) / RFU SYPL1 (11715823_x_at) / Fold change /veh SYPL1 (11715823_x_at) / RFU IGFBP7 (11715501_s_at) / Fold change /veh IGFBP7 (11715501_s_at) / RFU REEP3 (11722064_at) / Fold change /veh REEP3 (11722064_at) / RFU IGLL1 (11728026_x_at) / Fold change /veh IGLL1 (11728026_x_at): dose or concentration left out as unconfirmed
Conditions: MV-4-11 cells, 48 hours

**Q.** How did the “Fold change /veh NR4A2 (11747474_a_at)” value turn out when `Nc1ncn([C@@H]2O[C@H](CO)[C@@H](O)[C@H]2O)c(=O)n1` [azacitidine] was run?
**A.** 0.97
